Data taken from US20180153899A1, “PHARMACEUTICAL COMPOSITIONS” (Novartis AG, priority 2015, published 2018).
Like-named read-outs stand apart in the source and are kept apart here.

Experiment: Clinical study, steady state PK (Cycle 1 Day 15) after daily oral tablets of example 1
Format: in vivo, human
Conditions: for AUC(0-t) / Cmax / Tmax / half-life / AUC: human, in vivo; for Tmax: median (minimum-maximum); for half-life: read-out: T½ (converted)
Description: Non-small cell lung cancer patients with EGFR T790M mutation were enrolled in a clinical study and received escalating doses of EGF816 ranging from 100 mg to 225 mg daily oral doses by using the tablets as described in example 1.

[1] = 150 mg qd (N = 6), geometric mean (CV %)
[2] = 200 mg qd (N = 7), geometric mean (CV %)
[3] = 225 mg qd (N = 7), geometric mean (CV %)
[4] = 100 mg qd (N = 3), geometric mean (CV %)

CLss/F [1]: 238 (38) mL/min
CLss/F [2]: 247 (58) mL/min
CLss/F [3]: 222 (37) mL/min
AUC(0-t) [4]: 9050 ng·h/mL
Cmax [4]: 519 ng/mL
Tmax (100 mg qd (N = 3)): 6 h
half-life (100 mg qd (N = 3), only one value calculated): 14 h
AUC [1]: 10500 ng·h/mL
AUC(0-t) [1]: 10300 ng·h/mL
Cmax [1]: 675 ng/mL
half-life [1]: 17 h
Tmax (150 mg qd (N = 6)): 5 h
AUC [2]: 13500 ng·h/mL
AUC(0-t) [2]: 13500 ng·h/mL
Cmax [2]: 939 ng/mL
half-life [2]: 13 h
Tmax (200 mg qd (N = 7)): 3 h
AUC [3]: 16900 ng·h/mL
AUC(0-t) [3]: 12100 ng·h/mL
Cmax [3]: 1270 ng/mL
half-life [3]: 10 h
Tmax (225 mg qd (N = 7)): 3 h
SMILES: Cc1cc(C(=O)Nc2nc3cccc(Cl)c3n2[C@@H]2CCCCN(C(=O)/C=C/CN(C)C)C2)ccn1 [EGF816, (R,E)-N-(7-chloro-1-(1-(4-(dimethylamino)but-2-enoyl)azepan-3-yl)-1H-benzo[d]imidazol-2-yl)-2-methylisonicotinamide]
